We go through 28 compounds from US20260224571A1, “AZACYCLOALKANE COMPOUND AND PHARMACEUTICAL COMPOSITION, AND USE THEREOF” (Prime Gene Therapeutics Co., Ltd., priority 2023, published 2026).

The target in test [1] is ROCK1 (Homo sapiens, UniProt Q13464). Put plainly: ROCK1 kinase enzymatic activity (HTRF, STK2 substrate). The format is biochemical. The settings on record: ROCK1 kinase reacted at room temperature for 20 minutes. An excerpt:
(§1) The kinase activity data was expressed by comparing the kinase activity of the test compound and that of the blank group (containing only DMSO), and the IC50 value was obtained by curve fitting using Prism software (GraphPad7.0).

In test [2] the target is ROCK2 (Homo sapiens, UniProt O75116). Put plainly: ROCK2 kinase enzymatic activity (HTRF, STK2 substrate). The format is biochemical. The settings on record: ROCK2 kinase reacted at room temperature for 30 minutes.
Sequence of ROCK2 (O75116 whole entry): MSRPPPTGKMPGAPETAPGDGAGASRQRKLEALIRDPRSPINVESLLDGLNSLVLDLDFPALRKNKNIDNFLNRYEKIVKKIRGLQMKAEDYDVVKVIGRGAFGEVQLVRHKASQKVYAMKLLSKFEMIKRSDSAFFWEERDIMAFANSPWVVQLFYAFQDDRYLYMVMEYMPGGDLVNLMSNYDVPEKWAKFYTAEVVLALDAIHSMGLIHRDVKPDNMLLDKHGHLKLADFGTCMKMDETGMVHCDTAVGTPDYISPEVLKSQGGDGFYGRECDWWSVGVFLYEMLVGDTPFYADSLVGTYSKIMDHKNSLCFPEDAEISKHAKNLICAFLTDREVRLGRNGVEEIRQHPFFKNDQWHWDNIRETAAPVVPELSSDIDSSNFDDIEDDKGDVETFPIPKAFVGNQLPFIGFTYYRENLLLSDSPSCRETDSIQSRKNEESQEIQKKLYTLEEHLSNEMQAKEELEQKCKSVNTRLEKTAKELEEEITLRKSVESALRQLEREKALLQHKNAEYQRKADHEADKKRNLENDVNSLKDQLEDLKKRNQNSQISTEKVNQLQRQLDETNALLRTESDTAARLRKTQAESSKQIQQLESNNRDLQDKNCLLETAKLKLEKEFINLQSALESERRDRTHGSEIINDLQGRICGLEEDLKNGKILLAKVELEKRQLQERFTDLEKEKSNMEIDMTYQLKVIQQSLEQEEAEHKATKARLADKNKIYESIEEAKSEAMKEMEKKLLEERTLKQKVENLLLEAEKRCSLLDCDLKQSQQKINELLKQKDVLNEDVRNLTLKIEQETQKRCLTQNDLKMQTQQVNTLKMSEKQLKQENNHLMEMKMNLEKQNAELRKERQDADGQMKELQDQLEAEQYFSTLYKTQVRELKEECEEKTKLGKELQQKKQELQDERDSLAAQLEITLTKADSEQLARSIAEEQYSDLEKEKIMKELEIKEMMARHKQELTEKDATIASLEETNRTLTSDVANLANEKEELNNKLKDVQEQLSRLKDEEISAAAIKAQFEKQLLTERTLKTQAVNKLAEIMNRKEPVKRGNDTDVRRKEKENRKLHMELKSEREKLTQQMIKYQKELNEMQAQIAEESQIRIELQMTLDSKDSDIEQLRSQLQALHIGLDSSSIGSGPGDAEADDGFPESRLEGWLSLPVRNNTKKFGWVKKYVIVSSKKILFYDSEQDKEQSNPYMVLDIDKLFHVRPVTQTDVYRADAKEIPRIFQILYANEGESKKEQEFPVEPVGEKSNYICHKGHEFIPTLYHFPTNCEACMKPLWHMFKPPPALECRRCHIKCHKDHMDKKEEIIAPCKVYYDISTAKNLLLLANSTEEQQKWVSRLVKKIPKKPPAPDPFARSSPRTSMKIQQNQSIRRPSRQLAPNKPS
Description: as §1

Each structure is given as a SMILES string. Some results are limits rather than exact numbers.

Sequence of ROCK1 (Q13464 whole entry): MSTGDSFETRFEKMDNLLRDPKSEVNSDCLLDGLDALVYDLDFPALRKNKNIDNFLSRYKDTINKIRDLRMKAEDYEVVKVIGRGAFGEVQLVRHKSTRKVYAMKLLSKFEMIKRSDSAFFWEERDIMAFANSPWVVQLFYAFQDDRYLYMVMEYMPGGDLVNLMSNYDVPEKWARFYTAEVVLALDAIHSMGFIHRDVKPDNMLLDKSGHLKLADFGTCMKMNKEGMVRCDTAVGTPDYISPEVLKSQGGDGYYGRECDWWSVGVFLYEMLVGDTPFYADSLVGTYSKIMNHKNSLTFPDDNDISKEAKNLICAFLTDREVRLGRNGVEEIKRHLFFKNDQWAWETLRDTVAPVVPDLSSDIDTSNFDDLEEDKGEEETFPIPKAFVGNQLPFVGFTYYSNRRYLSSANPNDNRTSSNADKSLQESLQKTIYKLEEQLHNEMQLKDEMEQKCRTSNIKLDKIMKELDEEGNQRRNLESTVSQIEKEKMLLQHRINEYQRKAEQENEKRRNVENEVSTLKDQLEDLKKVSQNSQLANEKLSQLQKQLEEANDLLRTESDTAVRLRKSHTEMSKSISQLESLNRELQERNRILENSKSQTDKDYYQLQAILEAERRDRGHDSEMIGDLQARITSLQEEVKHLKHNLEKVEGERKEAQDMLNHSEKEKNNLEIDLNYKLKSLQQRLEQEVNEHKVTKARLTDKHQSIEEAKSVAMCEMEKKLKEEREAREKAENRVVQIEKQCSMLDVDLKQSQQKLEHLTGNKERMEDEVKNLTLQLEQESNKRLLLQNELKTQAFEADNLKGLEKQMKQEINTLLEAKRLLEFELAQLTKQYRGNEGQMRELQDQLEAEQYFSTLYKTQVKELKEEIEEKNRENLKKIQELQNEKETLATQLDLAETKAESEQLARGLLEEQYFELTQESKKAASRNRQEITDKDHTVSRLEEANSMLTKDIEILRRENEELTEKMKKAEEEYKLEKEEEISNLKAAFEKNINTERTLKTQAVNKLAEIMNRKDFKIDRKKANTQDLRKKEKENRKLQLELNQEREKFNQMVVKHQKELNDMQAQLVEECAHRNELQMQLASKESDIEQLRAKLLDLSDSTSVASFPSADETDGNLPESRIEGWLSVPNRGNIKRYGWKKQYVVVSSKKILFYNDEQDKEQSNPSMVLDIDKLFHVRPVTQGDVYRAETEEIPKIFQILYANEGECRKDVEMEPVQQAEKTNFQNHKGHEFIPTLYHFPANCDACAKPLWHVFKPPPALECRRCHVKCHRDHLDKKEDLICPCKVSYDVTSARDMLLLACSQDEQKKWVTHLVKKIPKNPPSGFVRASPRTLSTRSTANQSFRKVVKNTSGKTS

On to `CCS(=O)(=O)N1CC(CC#N)(n2cc(-c3ncnc4[nH]ccc34)c(C(=O)NC)n2)C1` [Example 63, 1-(3-(cyanomethyl)-1-(ethylsulfonyl)azetidine-3-yl)-N-methyl-4-(7H-pyrrolo[2,3-d]pyrimidin-4-yl)-1H-pyrazol-3-formamide], for which the IC50 in test [1] and in test [2] was above 100 nM in each case.
On to `N#CCC1(n2cc(-c3ncnc4[nH]ccc34)c(C(N)=O)n2)CN(S(=O)(=O)C2CC2)C1` [Example 67, 1-(3-(cyanomethyl)-1-(cyclopropylsulfonyl)azetidine-3-yl)-4-(7H-pyrrolo[2,3-d]pyrimidin-4-yl)-1H-pyrazol-3-formamide], for which the IC50 in test [1] and in test [2] was above 100 nM throughout.
For `N#CCC1(n2cc(-c3ncnc4[nH]ccc34)c(N)n2)CN(C(=O)CC(F)(F)F)C1` [Example 30], the IC50 in test [1] is below 5 nM; in test [2], below 10 nM.
Consider `CS(=O)(=O)N1CC(CC#N)(n2cc(-c3ccnc(NCc4ccccc4)n3)c(N)n2)C1` [Example 79, 2-(3-(3-amino-4-(2-(benzylamino)pyrimidin-4-yl)-1H-pyrazol-1-yl)-1-(methylsulfonyl)azetidine-3-yl)acetonitrile], for which the IC50 in test [1] and in test [2] was above 100 nM throughout.
Turning to `CCS(=O)(=O)N1CC(CC#N)(n2cc(-c3cc(NC)nc4ccnn34)c(N)n2)C1` [Example 85, 2-(3-(3-amino-4-(5-(methylamino)pyrazolo[1,5-a]pyrimidin-7-yl)-1H-pyrazol-1-yl)-1-(ethylsulfonyl)azetidine-3-yl)acetonitrile], the IC50 in test [1] and in test [2] was above 100 nM each time.
Consider `COC(=O)CNS(=O)(=O)N1CC(CC#N)(n2cc(-c3ncnc4[nH]ccc34)c(N)n2)C1` [Example 53, methyl (3-(3-amino-4-(7H-pyrrolo[2,3-d]pyrimidin-4-yl)-1H-pyrazol-1-yl)-3-(cyanomethyl)azetidine-1-ylsulfonyl)glycinate], for which the IC50 in test [1] and in test [2] was below 10 nM each time.
`CNS(=O)(=O)N1CC(CC#N)(n2cc(-c3ncnc4[nH]ccc34)c(N)n2)C1` [Example 49, 3-(3-amino-4-(7H-pyrrolo[2,3-d]pyrimidin-4-yl)-1H-pyrazol-1-yl)-3-(cyanomethyl)-N-methylazetidine-1-sulfonamide]: the IC50 in test [1] and in test [2] was below 10 nM throughout.
Take `CNC(=O)c1nn(C2(CC#N)CN(S(=O)(=O)C3CC3)C2)cc1-c1ncnc2[nH]ccc12` [Example 65, 1-(3-(cyanomethyl)-1-(cyclopropylsulfonyl)azetidine-3-yl)-N-methyl-4-(7H-pyrrolo[2,3-d]pyrimidin-4-yl)-1H-pyrazol-3-formamide]: the IC50 in test [1] and in test [2] was above 100 nM each time.
Regarding `N#CCC1(n2cc(-c3ncnc4[nH]ccc34)c(N)n2)CN(S(=O)(=O)N(CC(F)(F)F)CC(F)(F)F)C1` [Example 43, 3-(3-amino-4-(7H-pyrrolo[2,3-d]pyrimidin-4-yl)-1H-pyrazol-1-yl)-3-(cyanomethyl)-N,N-bis(2,2,2-trifluoroethyl)azetidine-1-sulfonamide], the IC50 in test [1] and in test [2] was below 10 nM each time.
As for `N#CCC1(n2cc(-c3ncnc4[nH]ccc34)c(N)n2)CN(C(=O)C2(C(F)(F)F)CC2)C1` [Example 25, 2-(3-(3-amino-4-(7H-pyrrolo[2,3-d]pyrimidin-4-yl)-1H-pyrazol-1-yl)-1-(1-(trifluoromethyl)cyclopropane-1-carbonyl)azetidine-3-yl)acetonitrile], the half-inhibitory concentration (IC50) in test [1] and in test [2] was below 10 nM in each case.
On to `N#CCC1(n2cc(-c3ncnc4[nH]ccc34)c(N)n2)CN(C(=O)C2CC(F)(F)C2)C1` [Example 32, 2-(3-(3-amino-4-(7H-pyrrolo[2,3-d]pyrimidin-4-yl)-1H-pyrazol-1-yl)-1-(3,3-difluorocyclobutane-1-carbonyl)azetidine-3-yl)acetonitrile], for which the IC50 is below 5 nM in test [1] and below 10 nM in test [2].
On to `CC(C)S(=N)(=O)N1CC(CC#N)(n2cc(-c3ncnc4[nH]ccc34)c(N)n2)C1` (centres unmarked) [Example 39, 2-(3-(3-amino-4-(7H-pyrrolo[2,3-d]pyrimidin-4-yl)-1H-pyrazol-1-yl)-1-(prop-2-yl-sulfonylimino)azetidine-3-yl)acetonitrile], for which the IC50 in test [1] and in test [2] was below 50 nM each time.
As to `CNc1cc(-c2cn(C3(CC#N)CN(S(C)(=O)=O)C3)nc2N)ncn1` [Example 77, 2-(3-(3-amino-4-(6-(methylamino)pyrimidin-4-yl)-1H-pyrazol-1-yl)-1-(methylsulfonyl)azetidine-3-yl)acetonitrile], the IC50 in test [1] and in test [2] was above 100 nM throughout.
Take `N#CCC1(n2cc(-c3ncnc4[nH]ccc34)c(N)n2)CN(C(=O)NCC(F)(F)F)C1` [Example 11, 3-(3-amino-4-(7H-pyrrolo[2,3-d]pyrimidin-4-yl)-1H-pyrazol-1-yl)-3-(cyanomethyl)-N-(2,2,2-trifluoroethyl)azetidine-1-formamide]: the IC50 in test [1] and in test [2] was below 10 nM each time.
As to `C[C@H](NC(=O)N1CC(CC#N)(n2cc(-c3ncnc4[nH]ccc34)c(N)n2)C1)C(F)(F)F` [Example 16, (S)-3-(3-amino-4-(7H-pyrrolo[2,3-d]pyrimidin-4-yl)-1H-pyrazol-1-yl)-3-(cyanomethyl)-N-(1,1,1-trifluoropropan-2-yl)azetidine-1-formamide], the IC50 in test [1] and in test [2] was below 50 nM each time.
As to `CCS(=O)(=O)N1CC(CC#N)(n2cc(-c3ncnc4[nH]ccc34)c(C(N)=O)n2)C1` [Example 66, 1-(3-(cyanomethyl)-1-(ethylsulfonyl)azetidine-3-yl)-4-(7H-pyrrolo[2,3-d]pyrimidin-4-yl)-1H-pyrazol-3-formamide], the IC50 in test [1] and in test [2] was above 100 nM each time.
On to `N#CCC1(n2cc(-c3ncnc4[nH]ccc34)c(C(N)=O)n2)CN(S(=O)(=O)CC(F)(F)F)C1` [Example 60, 1-(3-(cyanomethyl)-1-((2,2,2-trifluoroethyl)sulfonyl)azetidine-3-yl)-4-(7H-pyrrolo[2,3-d]pyrimidin-4-yl)-1H-pyrazole-3-formamide], for which the IC50 in test [1] and in test [2] was above 100 nM throughout.
As for `N#CCC1(n2cc(-c3ncnc4[nH]ccc34)c(N)n2)CN(C(=O)NCCO)C1` [Example 17, 3-(3-amino-4-(7H-pyrrolo[2,3-d]pyrimidin-4-yl)-1H-pyrazol-1-yl)-3-(cyanomethyl)-N-(2-hydroxyethyl)azetidine-1-formamide], the IC50 in test [1] and in test [2] was below 50 nM in each case.
Consider `N#CCC1(n2cc(-c3ncnc4[nH]ccc34)c(N)n2)CN(S(=O)(=O)N2CC2)C1` [Example 47, 2-(3-(3-amino-4-(7H-pyrrolo[2,3-d]pyrimidin-4-yl)-1H-pyrazol-1-yl)-1-(aziridin-1-ylsulfonyl)azetidine-3-yl)acetonitrile], for which the IC50 in test [1] and in test [2] was below 5 nM in each case.
`CN(C)S(=O)(=O)N1CC(CC#N)(n2cc(-c3ncnc4[nH]ccc34)c(N)n2)C1` [Example 51, 3-(3-amino-4-(7H-pyrrolo[2,3-d]pyrimidin-4-yl)-1H-pyrazol-1-yl)-3-(cyanomethyl)-N,N-dimethylazetidine-1-sulfonamide]: the IC50 in test [1] and in test [2] was below 10 nM in each case.
Take `N#CCC(=O)N1CC(CC#N)(n2cc(-c3ncnc4[nH]ccc34)c(N)n2)C1` [Example 21, 3-(3-(3-amino-4-(7H-pyrrolo[2,3-d]pyrimidin-4-yl)-1H-pyrazol-1-yl)-3-(cyanomethyl)azetidine-1-yl]-3-oxopropionitrile]: the IC50 in test [1] is below 5 nM; in test [2], below 10 nM.
Take `N#CCC1(n2cc(-c3ncnc4[nH]ccc34)c(N)n2)CN(S(=O)(=O)NCCO)C1` [Example 44, 3-(3-amino-4-(7H-pyrrolo[2,3-d]pyrimidin-4-yl)-1H-pyrazol-1-yl)-3-(cyanomethyl)-N-(2-hydroxyethyl)azetidine-1-sulfonamide]: the IC50 in test [1] and in test [2] was below 50 nM throughout.
Consider `N#CCC1(n2cc(-c3ncnc4[nH]ccc34)c(O)n2)CN(S(=O)(=O)C2CC2)C1` [Example 58, 2-(1-(cyclopropylsulfonyl)-3-(3-hydroxy-4-(7H-pyrrolo[2,3-d]pyrimidin-4-yl)-1H-pyrazol-1-yl)azetidine-3-yl)acetonitrile], for which the IC50 in test [1] is below 50 nM; in test [2], above 100 nM.
Turning to `CS(=O)(=O)N1CC(CC#N)(n2cc(-c3cc(NCCO)ncn3)c(N)n2)C1` [Example 74, 2-(3-(3-amino-4-(6-((2-hydroxyethyl)amino)pyrimidin-4-yl)-1H-pyrazol-1-yl)-1-(methylsulfonyl)azetidine-3-yl)acetonitrile], the IC50 in test [1] and in test [2] was above 100 nM throughout.
Take `N#CCC1(n2cc(-c3ncnc4[nH]ccc34)c(N)n2)CN(S(=O)(=O)NS(N)(=O)=O)C1` [Example 42, 3-(3-amino-4-(7H-pyrrolo[2,3-d]pyrimidin-4-yl)-1H-pyrazol-1-yl)-3-(cyanomethyl)-N-sulfamoylazetidine-1-sulfonamide]: the IC50 in test [1] is below 100 nM; in test [2], below 50 nM.
For the compound `N#CCC1(n2cc(-c3ncnc4[nH]ccc34)c(N)n2)CN(C(=O)N[C@H]2CC2(F)F)C1` [Example 20, (S)-3-(3-amino-4-(7H-pyrrolo[2,3-d]pyrimidin-4-yl)-1H-pyrazol-1-yl)-3-(cyanomethyl)-N-(2,2-difluorocyclopropyl)azetidine-1-formamide], the IC50 in test [1] and in test [2] was below 10 nM each time.
As to `C[C@H](N)C(=O)N1CC(CC#N)(n2cc(-c3ncnc4[nH]ccc34)c(N)n2)C1` [Example 23, 2-(1-alaninyl-3-(3-amino-4-(7H-pyrrolo[2,3-d]pyrimidin-4-yl)-1H-pyrazol-1-yl)azetidine-3-yl)acetonitrile], the IC50 in test [1] and in test [2] was below 50 nM each time.
Regarding `N#CCC1(n2cc(-c3ncnc4[nH]ccc34)c(N)n2)CN(C(=O)C(F)(F)C(F)(F)F)C1` [Example 27], the IC50 in test [1] and in test [2] was below 10 nM each time.
